Experimental data taken from ChEMBL document CHEMBL4354833, “Kinetic Target-Guided Synthesis: Reaching the Age of Maturity” (J Med Chem, 2020).
Converted amounts (≈) assume the structure as drawn. Blank lines part the entries; values can stand above or below the molecule they belong to.

Columns and labels:
[1] = molecular target: T1, Signal transducer and activator of transcription 5B (Homo sapiens, UniProt P51692); experiment: Binding affinity to MBP-tagged recombinant STAT5b-SH2 domain (unknown origin) using carboxyfluoresceine-labeled phosphotyrosine octapeptide incubated for 12 hrs by fluorescence polarization assay
T1 sequence (P51692 whole entry): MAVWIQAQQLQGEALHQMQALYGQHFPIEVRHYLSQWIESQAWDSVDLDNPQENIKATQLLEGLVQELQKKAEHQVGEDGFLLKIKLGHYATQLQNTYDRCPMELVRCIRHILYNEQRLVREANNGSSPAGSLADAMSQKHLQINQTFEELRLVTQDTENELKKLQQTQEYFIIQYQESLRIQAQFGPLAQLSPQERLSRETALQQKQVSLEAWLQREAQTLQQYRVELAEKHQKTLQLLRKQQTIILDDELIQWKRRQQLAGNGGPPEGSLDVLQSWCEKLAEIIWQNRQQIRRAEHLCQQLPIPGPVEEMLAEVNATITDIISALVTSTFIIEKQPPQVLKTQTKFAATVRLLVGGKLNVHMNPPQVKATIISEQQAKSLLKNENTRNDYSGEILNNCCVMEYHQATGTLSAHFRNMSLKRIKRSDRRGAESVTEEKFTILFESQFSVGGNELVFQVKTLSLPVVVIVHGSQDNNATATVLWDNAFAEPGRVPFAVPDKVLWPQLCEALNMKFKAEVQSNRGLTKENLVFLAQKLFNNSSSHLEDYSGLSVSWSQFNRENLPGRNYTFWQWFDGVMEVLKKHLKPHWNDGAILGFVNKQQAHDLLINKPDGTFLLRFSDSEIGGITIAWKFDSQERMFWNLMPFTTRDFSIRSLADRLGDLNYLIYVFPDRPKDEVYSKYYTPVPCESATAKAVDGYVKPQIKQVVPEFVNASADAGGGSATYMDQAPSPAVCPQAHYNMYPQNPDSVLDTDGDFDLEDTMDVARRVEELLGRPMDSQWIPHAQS

[2] = molecular target: T2, Prostaglandin G/H synthase 2 (Homo sapiens, UniProt P35354); experiment: Binding affinity to human COX2
T2 sequence (P35354 whole entry): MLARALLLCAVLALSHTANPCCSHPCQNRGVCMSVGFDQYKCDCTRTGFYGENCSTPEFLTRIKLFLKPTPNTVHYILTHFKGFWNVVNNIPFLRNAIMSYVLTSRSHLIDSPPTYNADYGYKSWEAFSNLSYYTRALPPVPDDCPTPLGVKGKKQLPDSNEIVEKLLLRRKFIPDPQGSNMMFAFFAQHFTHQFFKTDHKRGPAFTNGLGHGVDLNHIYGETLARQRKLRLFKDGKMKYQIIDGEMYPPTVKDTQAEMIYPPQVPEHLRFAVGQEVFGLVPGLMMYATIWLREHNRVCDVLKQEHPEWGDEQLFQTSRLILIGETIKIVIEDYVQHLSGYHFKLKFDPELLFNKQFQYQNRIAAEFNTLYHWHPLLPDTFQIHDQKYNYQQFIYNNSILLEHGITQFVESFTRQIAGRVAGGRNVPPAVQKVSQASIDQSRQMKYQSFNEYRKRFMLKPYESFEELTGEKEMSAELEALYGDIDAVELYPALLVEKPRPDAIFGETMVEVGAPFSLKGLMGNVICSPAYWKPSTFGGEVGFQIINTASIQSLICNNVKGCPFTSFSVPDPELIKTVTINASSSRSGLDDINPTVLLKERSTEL

NAD kinase 1 = molecular target: T3, NAD kinase 1 (Listeria monocytogenes serovar 1/2a (strain ATCC BAA-679 / EGD-e), UniProt Q8Y8D7); experiment: Inhibition of Listeria monocytogenes NAD kinase assessed as suppression of reduced NADP formation by yeast glucose-6-phosphate dehydrogenase coupled assay
T3 sequence (Q8Y8D7 whole entry): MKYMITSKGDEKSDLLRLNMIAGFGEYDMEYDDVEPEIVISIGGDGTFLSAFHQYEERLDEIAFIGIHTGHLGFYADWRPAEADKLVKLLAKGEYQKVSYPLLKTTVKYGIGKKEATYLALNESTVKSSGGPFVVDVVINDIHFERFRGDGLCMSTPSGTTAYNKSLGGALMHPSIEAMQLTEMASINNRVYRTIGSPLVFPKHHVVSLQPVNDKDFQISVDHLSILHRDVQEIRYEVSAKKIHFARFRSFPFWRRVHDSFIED

[3] = molecular target: Bacterial 70S ribosome (Bacteria) (UniProt P0A7V0+P60723+P0AG67+P0A7R5+P0A7R9+P0A7S3+P0A7S9+P0AG59+P0ADZ4+P0A7T3+P0AG63+P0A7T7+P0A7U3+P0A7U7+P68679+P0A7V3+P0A7V8+P0A7W1+P02358+P02359+P0A7W7+P0A7X3+P0A7J3+P0A7J7+P0AA10+P0ADY3+P02413+P0ADY7+P0AG44+P0C018+P0A7K6+P0A7L0+P0A7L3+P0AG48+P61175+P0ADZ0+P60624+P68919+P0A7L8+P0A7M2+P0A7M6+P60422+P0AG51+P0A7N1+P0A7M9+P0A7N4+P0A7N9+P0A7P5+P0A7Q1+Q2EEQ2+P0A7Q6+P60438+P62399+P0AG55+P0A7K2); experiment: Inhibition of 70S ribosome in Escherichia coli cell free system assessed as reduction in protein synthesis by measuring EmGFP synthesis at 1 uM by cell-free translation inhibition method relative to control; type: subcellular
Bacterial 70S ribosome = experiment: Binding affinity to Escherichia coli 70S ribosome assessed as reduction in BODIPY-Erythromycin A binding incubated for 1 hr by fluorescence polarization assay; type: subcellular
Streptococcus pneumoniae = experiment: Antimicrobial activity against Streptococcus pneumoniae ATCC 49619; type: functional
[4] = molecular target: T4, Signal transducer and activator of transcription 5B (Homo sapiens) (UniProt P51692); experiment: Binding affinity to MBP-tagged recombinant STAT5b-SH2 domain (unknown origin) assessed as change in melting temperature by CETSA method
T4 sequence (whole entry): T1 sequence (P51692 whole entry)

[5] = molecular target: T5, Signal transducer and activator of transcription 5B (Mus musculus) (UniProt P42232); experiment: Inhibition of STAT5b in mouse BaF3/FLT3-ITD cells incubated for 6 hrs by CETSA-ITDRF assay; type: cell-based
T5 sequence (whole entry): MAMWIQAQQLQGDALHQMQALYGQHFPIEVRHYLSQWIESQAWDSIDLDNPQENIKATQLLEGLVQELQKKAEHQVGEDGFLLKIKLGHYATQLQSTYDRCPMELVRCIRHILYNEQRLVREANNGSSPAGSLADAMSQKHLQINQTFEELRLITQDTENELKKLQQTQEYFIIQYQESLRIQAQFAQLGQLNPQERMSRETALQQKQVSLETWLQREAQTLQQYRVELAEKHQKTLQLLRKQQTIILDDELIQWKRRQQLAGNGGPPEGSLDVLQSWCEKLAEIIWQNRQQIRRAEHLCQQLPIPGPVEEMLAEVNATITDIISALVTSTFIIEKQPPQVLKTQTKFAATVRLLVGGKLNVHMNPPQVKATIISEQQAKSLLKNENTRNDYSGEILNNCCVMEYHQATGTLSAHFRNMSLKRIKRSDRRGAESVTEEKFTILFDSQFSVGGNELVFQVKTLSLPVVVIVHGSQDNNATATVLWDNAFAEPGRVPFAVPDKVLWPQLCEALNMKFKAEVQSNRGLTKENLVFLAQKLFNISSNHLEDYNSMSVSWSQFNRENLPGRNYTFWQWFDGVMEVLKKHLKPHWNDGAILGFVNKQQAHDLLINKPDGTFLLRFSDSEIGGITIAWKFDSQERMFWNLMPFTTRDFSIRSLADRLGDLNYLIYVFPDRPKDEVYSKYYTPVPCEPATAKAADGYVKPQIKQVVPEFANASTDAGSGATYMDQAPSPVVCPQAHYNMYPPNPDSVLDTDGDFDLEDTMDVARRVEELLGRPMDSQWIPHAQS

[6] = Inhibition of Enterovirus A71 3c protease
Rattus norvegicus = species on record: Rattus norvegicus; experiment: animal or person; conditions: 3 h
Description: Antiinflammatory activity in rat model of carrageenan-induced paw edema model after 3 hrs

[7] = molecular target: Luciferin 4-monooxygenase (Photinus pyralis, UniProt P08659); experiment: Inhibition of Photinus pyralis luciferase using ATP and D-luciferin in presence of Coenzyme A and DL-cysteine by luminescence based assay
Chain of Luciferin 4-monooxygenase (P08659 whole entry): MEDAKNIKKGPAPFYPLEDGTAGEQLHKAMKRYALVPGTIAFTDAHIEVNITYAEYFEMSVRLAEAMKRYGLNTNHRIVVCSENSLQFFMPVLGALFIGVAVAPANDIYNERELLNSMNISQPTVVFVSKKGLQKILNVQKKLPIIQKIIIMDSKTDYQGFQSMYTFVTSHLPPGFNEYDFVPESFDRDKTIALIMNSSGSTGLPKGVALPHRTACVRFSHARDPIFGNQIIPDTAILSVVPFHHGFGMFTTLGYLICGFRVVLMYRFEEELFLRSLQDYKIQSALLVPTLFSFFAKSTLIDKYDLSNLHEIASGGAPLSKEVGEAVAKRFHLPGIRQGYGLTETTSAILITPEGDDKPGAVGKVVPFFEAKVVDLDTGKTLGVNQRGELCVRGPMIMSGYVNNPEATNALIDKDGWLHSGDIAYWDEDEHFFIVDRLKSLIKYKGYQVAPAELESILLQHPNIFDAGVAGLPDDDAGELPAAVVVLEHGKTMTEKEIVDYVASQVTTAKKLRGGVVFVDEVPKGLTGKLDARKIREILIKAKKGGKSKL

Ki [1]: > 5000 µM
Structure (SMILES): O=C(O)c1nonc1NCn1nnnc1-c1cccc(C(F)(F)F)c1

Kd [2]: 0.01 µM
Structure (SMILES): Cc1cnc(Cn2cc(-c3onc(-c4ccccc4)c3-c3ccc(S(N)(=O)=O)cc3)nn2)c(C)c1[18F]

IC50 [1]: 37 µM
Structure (SMILES): COC(=O)c1nonc1NCn1cnnn1

IC50 [6]: 1.43 µM
Structure (SMILES): CCOC(=O)CC[C@H](C[C@@H]1CCCNC1=O)NC(=O)[C@H](Cc1ccccc1)NC(=O)C(O)CC(=O)c1ccncc1 (stereo partly specified)

IC50 [6]: 0.32 µM
Structure (SMILES): Cc1cc(C(=O)N[C@@H](Cc2ccc(F)cc2)C(=O)N[C@H](C=O)C[C@@H]2CCCNC2=O)no1

IC50 [7]: 0.01 µM
Structure (SMILES): Nc1ncnc2c1ncn2[C@H]1O[C@@H](COP(=O)(O)OC(=O)c2cccc(-c3noc(-c4ccccc4F)n3)c2)[C@H](O)[C@@H]1O

IC50 [6]: 0.15 µM
Structure (SMILES): O=C[C@H](C[C@@H]1CCCNC1=O)NC(=O)[C@H](Cc1ccccc1)NC(=O)C(O)CC(=O)c1ccncc1 (stereo partly specified)

Ki [1]: > 5000 µM
Structure (SMILES): O=C(O)c1nonc1NCn1cccn1

More lines, now with the values behind:

Structure (SMILES): [N-]=[N+]=NC[C@H]1O[C@@H](n2c(SCC(=O)NC[C@H]3O[C@@H](n4cnc5c(N)ncnc54)[C@H](O)[C@@H]3O)nc3c(N)ncnc32)[C@H](O)[C@@H]1O
Ki (NAD kinase 1): 25 µM

Structure (SMILES): CC[C@H]1OC(=O)[C@@](C)(F)C(=O)[C@H](C)[C@@H](O[C@@H]2O[C@H](C)C[C@H](N(C)C)[C@H]2O)[C@](C)(OC)C[C@@H](C)C(=O)[C@H](C)[C@H]2N(CCCCn3cc(-c4cccc(N(C)C)c4)nn3)C(=O)O[C@]12C
inhibition [3]: 37% | Kd (Bacterial 70S ribosome): 0.0014 µM | MIC (Streptococcus pneumoniae): 5 ng/mL (≈ 5.73 nM)

Structure (SMILES): CC[C@H]1OC(=O)[C@@](C)(F)C(=O)[C@H](C)[C@@H](O[C@@H]2O[C@H](C)C[C@H](N(C)C)[C@H]2O)[C@](C)(OC)C[C@@H](C)C(=O)[C@H](C)[C@H]2N(CCCCN=[N+]=[N-])C(=O)O[C@]12C
Kd (Bacterial 70S ribosome): 0.0021 µM | MIC (Streptococcus pneumoniae): 2 ng/mL (≈ 2.75 nM)

Structure (SMILES): O=C(O)c1nonc1NCn1cnnn1
ΔTm [4]: 8 °C | Occ50 [5]: 28 µM | IC50 [1]: 1.4 µM

Structure (SMILES): Cc1cc(-n2cc(-c3ccc(N)cc3)nn2)n(-c2ccc(S(C)(=O)=O)cc2)n1
ED50 (Rattus norvegicus): 0.12 mg/kg

Structure (SMILES): CC[C@H]1OC(=O)[C@@](C)(F)C(=O)[C@H](C)[C@@H](O[C@@H]2O[C@H](C)C[C@H](N(C)C)[C@H]2O)[C@](C)(OC)C[C@@H](C)C(=O)[C@H](C)[C@H]2N(CCCCn3cc(-c4cccc(N)c4)nn3)C(=O)O[C@]12C [SOLITHROMYCIN]
inhibition [3]: 47% | Kd (Bacterial 70S ribosome): 0.0006 µM | MIC (Streptococcus pneumoniae): 6 ng/mL (≈ 7.1 nM)
